Experimental data: patent publication US20230322761A1, “DEGRADATION OF BRUTON'S TYROSINE KINASE (BTK) BY CONJUGATION OF BTK INHIBITORS WITH E3 LIGASE LIGAND AND METHODS OF USE” (BEIGENE, LTD., priority 2020, published 2023)

The compounds below were run against T1, BTK (Homo sapiens, UniProt Q06187) (assay: BTK degradation in TMD-8 cells, HTRF assay after 6 h treatment). Conditions: IC50 (DC50) of BTK degradation.
T1 construct: endogenous in cells; host or cells: TMD-8 cells
T1 sequence (Q06187 whole entry): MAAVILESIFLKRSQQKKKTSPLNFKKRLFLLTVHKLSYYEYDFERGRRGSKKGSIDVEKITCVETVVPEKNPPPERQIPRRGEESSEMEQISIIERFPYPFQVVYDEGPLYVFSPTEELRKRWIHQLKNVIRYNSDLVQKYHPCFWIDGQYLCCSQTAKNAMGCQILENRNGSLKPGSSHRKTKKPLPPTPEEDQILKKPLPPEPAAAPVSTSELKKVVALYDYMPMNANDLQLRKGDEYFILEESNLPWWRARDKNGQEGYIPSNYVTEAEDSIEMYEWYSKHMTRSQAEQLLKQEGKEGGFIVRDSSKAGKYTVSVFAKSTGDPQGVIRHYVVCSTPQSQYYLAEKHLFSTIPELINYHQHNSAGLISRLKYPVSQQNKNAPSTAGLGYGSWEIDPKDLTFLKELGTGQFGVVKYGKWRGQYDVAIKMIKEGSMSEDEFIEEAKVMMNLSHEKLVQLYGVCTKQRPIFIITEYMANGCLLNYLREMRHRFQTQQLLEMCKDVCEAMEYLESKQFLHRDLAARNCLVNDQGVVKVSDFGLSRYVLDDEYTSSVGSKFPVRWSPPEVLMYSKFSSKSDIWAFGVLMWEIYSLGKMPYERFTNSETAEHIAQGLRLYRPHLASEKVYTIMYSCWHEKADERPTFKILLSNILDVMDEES
Assay type: cell-based
Experimental: TMD-8 cells are treated with compounds diluted in 0.2% DMSO, dilution is done according to the following protocol: (1) make 500× stock solution in DMSO from 1 mM by 6-fold dilution, total 8 doses were included; (2) make 2× solution in cell culture medium by transferring 0.5 μl 500× stock solution into 125 μl medium; (3) 15 μl of 2× solution is added to cells and incubate for 6 h.
After 6 h treatment, add 10 μl 4×lysis buffer to each well; seal the plate and incubate 30 min at room temperature on a plate shaker; Once the cells are lysed, 16 μL of cell lysate are transferred to a PE 384-well HTRF detection plate; 4 μL of pre-mixed HTRF antibodies are added to each well; Cover the plate with a plate sealer, spin 1000 rpm for 1 min, Incubate overnight at room temperature; Read on BMG PheraStar with HTRF protocol (337 nm-665 nm-620 nm).
The IC50 (DC50) value of a compound can be obtained by fitting the following equation
Y=Bottom+(TOP−Bottom)/(1+((IC50/X)^hillslope))
Wherein, X and Y are known values, and IC50, Hillslope, Top and Bottom are the parameters obtained by fitting with software. Y is the inhibition percentage (calculated from the equation), X is the concentration of the compound; IC50 is the concentration of the compound when the 50% inhibition is reached. The smaller the IC50 value is, the stronger the inhibitory ability of the compound is. Vice versa, the higher the IC50 value is, the weaker the ability the inhibitory ability of the compound is; Hillslope represents the slope of the fitted curve, generally around 1*; Bottom represents the minimum value of the curve obtained by data fitting, which is generally 0%±20%; Top represents the maximum value of the curve obtained by data fitting, which is generally 100%±20%. The experimental data were fitted by calculating and analyzing with Dotmatics data analysis software.
With `Cc1cc(-c2n[nH]c3ncc(-c4ccc(C5CCN(CCc6ccc(C7CCC(=O)NC7=O)cc6)CC5)cc4)cc23)ccc1[C@@H](C)NC(=O)c1noc(C(C)(C)C)n1` (stereo partly drawn) [Example 227, 5-(tert-butyl)-N-((1R)-1-(4-(5-(4-(1-(4-(2,6-dioxopiperidin-3-yl)phenethyl)piperidin-4-yl)phenyl)-1H-pyrazolo[3,4-b]pyridin-3-yl)-2-methylphenyl)ethyl)-1,2,4-oxadiazole-3-carboxamide] the DC50 was 3.93 nM.
With `Cc1cc(-c2n[nH]c3ncc(-c4ccc(N5CCN(CCc6ccc(N7CCC(=O)NC7=O)cn6)CC5)cc4)cc23)ccc1[C@@H](C)NC(=O)c1noc(C(C)(C)C)n1` [Example 194, (R)-5-(tert-butyl)-N-(1-(4-(5-(4-(4-(2-(5-(2,4-dioxotetrahydropyrimidin-1(2H)-yl)pyridin-2-yl)ethyl)piperazin-1-yl)phenyl)-1H-pyrazolo[3,4-b]pyridin-3-yl)-2-methylphenyl)ethyl)-1,2,4-oxadiazole-3-carboxamide] the DC50 was 1.69 nM.
With `Cc1cc(-c2n[nH]c3ncc(-c4ccc(C5CCN(CCC6CCN(c7ccc(N8CCC(=O)NC8=O)cc7)CC6)CC5)cc4)cc23)ccc1CNC(=O)c1nc(C(C)(C)C)no1` [Example 5, 3-(tert-butyl)-N-(4-(5-(4-(1-(2-(1-(4-(2,4-dioxotetrahydropyrimidin-1(2H)-yl)phenyl)piperidin-4-yl)ethyl)piperidin-4-yl)phenyl)-1H-pyrazolo[3,4-b]pyridin-3-yl)-2-methylbenzyl)-1,2,4-oxadiazole-5-carboxamide] the DC50 was 1.55 nM.
Work on `Cc1cc(-c2n[nH]c3ncc(-c4ccc(C5CCN(CCc6ccc([C@@H]7CCC(=O)NC7=O)cc6)CC5)nc4)cc23)ccc1[C@@H](C)NC(=O)c1noc(C(C)(C)C)n1` [Example 153, 5-(tert-butyl)-N—((R)-1-(4-(5-(6-(1-(4-((S)-2,6-dioxopiperidin-3-yl)phenethyl)piperidin-4-yl)pyridin-3-yl)-1H-pyrazolo[3,4-b]pyridin-3-yl)-2-methylphenyl)ethyl)-1,2,4-oxadiazole-3-carboxamide] yielded a DC50 of 11.8 nM.
`Cc1cc(-c2n[nH]c3ncc(-c4ccc(C5(C)CCN(CC6CCN(c7ccc(N8CCC(=O)NC8=O)cc7)CC6)CC5)cc4)cc23)ccc1[C@@H](C)NC(=O)c1noc(C(C)(C)C)n1` [Example 210, (R)-5-(tert-butyl)-N-(1-(4-(5-(4-(1-((1-(4-(2,4-dioxotetrahydropyrimidin-1(2H)-yl)phenyl)piperidin-4-yl)methyl)-4-methylpiperidin-4-yl)phenyl)-1H-pyrazolo[3,4-b]pyridin-3-yl)-2-methylphenyl)ethyl)-1,2,4-oxadiazole-3-carboxamide] was tested, and the DC50 was 5.98 nM.
`Cc1cc(-c2n[nH]c3ncc(-c4ccc(N5CCC(CN6CCN(c7ccc(N8CCC(=O)NC8=O)cn7)CC6)CC5)cc4)cc23)ccc1[C@@H](C)NC(=O)c1noc(C(C)(C)C)n1` [Example 165, (R)-5-(tert-butyl)-N-(1-(4-(5-(4-(4-((4-(5-(2,4-dioxotetrahydropyrimidin-1(2H)-yl)pyridin-2-yl)piperazin-1-yl)methyl)piperidin-1-yl)phenyl)-1H-pyrazolo[3,4-b]pyridin-3-yl)-2-methylphenyl)ethyl)-1,2,4-oxadiazole-3-carboxamide] showed a DC50 of 2.7 nM.
In the case of `Cc1cc(-c2n[nH]c3ncc(-c4cccc(N5CCN(CC6CCN(c7ccc(N8CCC(=O)NC8=O)cc7)CC6)CC5)c4)cc23)ccc1[C@@H](C)NC(=O)c1noc(C(C)(C)C)n1` [Example 95, (R)-5-(tert-butyl)-N-(1-(4-(5-(3-(4-((1-(4-(2,4-dioxotetrahydropyrimidin-1(2H)-yl)phenyl)piperidin-4-yl)methyl)piperazin-1-yl)phenyl)-1H-pyrazolo[3,4-b]pyridin-3-yl)-2-methylphenyl)ethyl)-1,2,4-oxadiazole-3-carboxamide], the DC50 is reported as 71.4 nM.
With `Cc1cc(-c2n[nH]c3ncc(-c4ccc(N5CCN(CC(F)(F)c6ccc(C7CCC(=O)NC7=O)cc6)CC5)cc4)cc23)ccc1[C@@H](C)NC(=O)c1nc(C(C)(C)C)no1` (stereo partly drawn) [Example 188, 3-(tert-butyl)-N-((1R)-1-(4-(5-(4-(4-(2-(4-(2,6-dioxopiperidin-3-yl)phenyl)-2,2-difluoroethyl)piperazin-1-yl)phenyl)-1H-pyrazolo[3,4-b]pyridin-3-yl)-2-methylphenyl)ethyl)-1,2,4-oxadiazole-5-carboxamide] the DC50 was 9.91 nM.
In the case of `Cc1cc(-c2n[nH]c3ncc(-c4ccc(CCN5CCC(c6ccc([C@@H]7CCC(=O)NC7=O)cc6)CC5)cc4)cc23)ccc1CNC(=O)c1nc(C(C)(C)C)no1` [Example 88, (S)-3-(tert-butyl)-N-(4-(5-(4-(2-(4-(4-(2,6-dioxopiperidin-3-yl)phenyl)piperidin-1-yl)ethyl)phenyl)-1H-pyrazolo[3,4-b]pyridin-3-yl)-2-methylbenzyl)-1,2,4-oxadiazole-5-carboxamide], the DC50 is reported as 9.41 nM.
`CC(C)(C)c1nc(C(=O)NCc2ccc(-c3n[nH]c4ncc(-c5ccc(N6CCN(CC7CCN(c8ccc(N9CCC(=O)NC9=O)cc8)CC7)CC6)cc5)cc34)cc2CO)no1` [Example 121, 5-(tert-butyl)-N-(4-(5-(4-(4-((1-(4-(2,4-dioxotetrahydropyrimidin-1(2H)-yl)phenyl)piperidin-4-yl)methyl)piperazin-1-yl)phenyl)-1H-pyrazolo[3,4-b]pyridin-3-yl)-2-(hydroxymethyl)benzyl)-1,2,4-oxadiazole-3-carboxamide] gave a DC50 of 2.39 nM.
Work on `Cc1cc(-c2n[nH]c3ncc(-c4ccc(N5CCN(CCC6CCN(c7ccc(C8CCC(=O)NC8=O)c(C)n7)CC6)CC5)cc4)cc23)ccc1[C@@H](C)NC(=O)c1noc(C(C)(C)C)n1` (stereo partly drawn) [Example 136, 5-(tert-butyl)-N-((1R)-1-(4-(5-(4-(4-(2-(1-(5-(2,6-dioxopiperidin-3-yl)-6-methylpyridin-2-yl)piperidin-4-yl)ethyl)piperazin-1-yl)phenyl)-1H-pyrazolo[3,4-b]pyridin-3-yl)-2-methylphenyl)ethyl)-1,2,4-oxadiazole-3-carboxamide] yielded a DC50 of 14.9 nM.
`Cc1cc(-c2n[nH]c3ncc(-c4ccc(N5CCN(CCc6ccc(C7CCC(=O)NC7=O)cc6)CC5)cc4)cc23)ccc1[C@@H](C)NC(=O)c1noc(C(C)(C)C)n1` (stereo partly drawn) [Example 35, 5-(tert-butyl)-N-((1R)-1-(4-(5-(4-(4-(4-(2,6-dioxopiperidin-3-yl)phenethyl)piperazin-1-yl)phenyl)-1H-pyrazolo[3,4-b]pyridin-3-yl)-2-methylphenyl)ethyl)-1,2,4-oxadiazole-3-carboxamide] showed a DC50 of 1.9 nM.
`Cc1cc(-c2n[nH]c3ncc(-c4ccc(N5CCCN(CC6CCN(c7ccc(N8CCC(=O)NC8=O)cc7)CC6)CC5)cc4)cc23)ccc1[C@@H](C)NC(=O)c1nc(C(C)(C)C)no1` [Example 202, (R)-3-(tert-butyl)-N-(1-(4-(5-(4-(4-((1-(4-(2,4-dioxotetrahydropyrimidin-1(2H)-yl)phenyl)piperidin-4-yl)methyl)-1,4-diazepan-1-yl)phenyl)-1H-pyrazolo[3,4-b]pyridin-3-yl)-2-methylphenyl)ethyl)-1,2,4-oxadiazole-5-carboxamide] showed a DC50 of 9.04 nM.

Same assay, conditions: TMD8, maximum percentage of inhibition (degradation)
Work on `Cc1cc(-c2n[nH]c3ncc(-c4ccc(C5CCN(CCC6CCN(c7ccc(N8CCC(=O)NC8=O)cc7)CC6)CC5)cc4)cc23)ccc1CNC(=O)c1nc(C(C)(C)C)no1` [Example 5, 3-(tert-butyl)-N-(4-(5-(4-(1-(2-(1-(4-(2,4-dioxotetrahydropyrimidin-1(2H)-yl)phenyl)piperidin-4-yl)ethyl)piperidin-4-yl)phenyl)-1H-pyrazolo[3,4-b]pyridin-3-yl)-2-methylbenzyl)-1,2,4-oxadiazole-5-carboxamide] yielded a Dmax of 97%.
In the case of `Cc1cc(-c2n[nH]c3ncc(-c4ccc(N5CCN(CCc6ccc(C7CCC(=O)NC7=O)cc6)CC5)cc4)cc23)ccc1[C@@H](C)NC(=O)c1noc(C(C)(C)C)n1` (stereo partly drawn) [Example 35, 5-(tert-butyl)-N-((1R)-1-(4-(5-(4-(4-(4-(2,6-dioxopiperidin-3-yl)phenethyl)piperazin-1-yl)phenyl)-1H-pyrazolo[3,4-b]pyridin-3-yl)-2-methylphenyl)ethyl)-1,2,4-oxadiazole-3-carboxamide], the Dmax is reported as 93%.
